Results as given in US7737155B2, “Nitrogen-containing heterocyclic compounds and methods of use thereof” (Schering Corporation, priority 2005, dated 2010).

Target: recombinant human nicotinic acid receptor (NAR) (Homo sapiens, UniProt Q8TDS4)
Experiment: Nicotinic Acid Receptor Assay: inhibition of forskolin-stimulated cAMP accumulation in CHO cells (MesoScale Discovery cAMP kit)
Type: cell-based
Conditions: CHO cells expressing recombinant human NAR; forskolin-stimulated cAMP; read-out: NA EC50 camp
Protocol: The nicotinic acid receptor agonist activity of the inventive compounds was determined by following the inhibition of forskolin-stimulated cAMP accumulation in cells using the MesoScale Discovery cAMP detection kit following the manufacture's protocol. Briefly, Chinese Hamster Ovary (CHO) cells expressing recombinant human nicotinic acid receptor (NAR) were harvested enzymatically, washed 1× in phosphate buffered saline (PBS) and resuspended in PBS containing 0.5 mM IBMX at 3×10^6 cells/mL. Ten μL of cell suspension was added to each well of a 384-well plate which contained 10 μL of test compounds. Test compounds were diluted with PBS containing 6 μM of forskolin. Plates were incubated for 30 minutes at room temperature after the addition of cells. Lysis buffer containing cAMP-Tag was added to each well (10 μL/well) as per the manufacturer's protocol. Plates were then incubated from 45 minutes to overnight. Prior to reading, 10 μL of read buffer was added to each well, and the plate was read in a Sector 6000 plate imager. The signal was converted to cAMP concentration using a standard curve run on each plate.

recombinant human nicotinic acid receptor (NAR), sequence (Q8TDS4 whole entry): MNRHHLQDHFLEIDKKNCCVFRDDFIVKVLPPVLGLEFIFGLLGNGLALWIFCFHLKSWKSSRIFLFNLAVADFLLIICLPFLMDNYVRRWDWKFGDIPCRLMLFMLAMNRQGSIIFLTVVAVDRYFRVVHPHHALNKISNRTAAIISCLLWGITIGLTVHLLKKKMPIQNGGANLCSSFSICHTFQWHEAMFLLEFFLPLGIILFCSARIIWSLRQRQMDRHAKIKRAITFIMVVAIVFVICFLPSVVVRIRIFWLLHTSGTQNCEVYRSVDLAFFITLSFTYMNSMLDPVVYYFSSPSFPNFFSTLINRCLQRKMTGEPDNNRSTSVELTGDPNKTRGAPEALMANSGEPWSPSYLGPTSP

Compound	EC50 [nM]
CCc1cc(=O)oc2nc(OC[C@H](C)OC)[nH]c(=O)c12 [Compound 632]	100 to 1000
CCOC(=O)NOc1nc2oc(=O)cc(CCC3CCC3)c2c(=O)[nH]1 [Compound 691]	0.001 to 100
O=C(NCCCc1cc(=O)oc2[nH]c(=O)[nH]c(=O)c12)OCc1ccccc1 [Compound 228]	> 1000
CCc1cc(=O)oc2nc(O[C@H](C)c3ccc4ccccc4c3)[nH]c(=O)c12 [Compound 500]	100 to 1000
CCc1cc(=O)oc2nc(OCC(C)(C)S(=O)(=O)c3ccc(Cl)cc3)[nH]c(=O)c12 [Compound 663]	> 1000
CCc1cc(=O)oc2nc(OCCN3CCCCC3)[nH]c(=O)c12 [Compound 578]	> 1000
CCc1cc(=O)oc2nc(OCc3cc(C)ccc3C)[nH]c(=O)c12 [Compound 539]	100 to 1000
CCCCc1cc(=O)oc2nc(OCCOC)[nH]c(=O)c12 [Compound 660]	> 1000
CCCCc1c(-c2ccc(F)cc2)c(=O)oc2[nH]c(=O)[nH]c(=O)c12 [Compound 706]	> 1000
CC(=O)Nc1ccc(-c2c(CCC3CCC3)c3c(=O)[nH]c(=O)[nH]c3oc2=O)cc1 [Compound 704]	> 1000
O=c1cc(CCC2CCCC2)c2c(=O)n(C3CCC3)c(=O)[nH]c2o1 [Compound 241]	0.001 to 100
CCOC(=O)c1cccc(-c2ccccc2COc2nc3oc(=O)cc(CC)c3c(=O)[nH]2)c1 [Compound 547]	100 to 1000
CC1CC1CCc1cc(=O)oc2[nH]c(=O)[nH]c(=O)c12 (stereo not drawn) [Compound 295]	100 to 1000
O=c1[nH]c(=O)c2c(CCCC3CCCC3)cc(=O)oc2[nH]1 [Compound 297]	0.001 to 100
CCc1cc(=O)oc2nc(OC(C)c3ccccc3C(F)(F)F)[nH]c(=O)c12 (stereo not drawn) [Compound 508]	> 1000
O=c1cc(CCCC2CC2)c2c(=O)n(C3CCC3)c(=O)[nH]c2o1 [Compound 224]	0.001 to 100
CCc1cc(=O)oc2nc(OCc3cnoc3C)[nH]c(=O)c12 [Compound 668]	> 1000
CCc1cc(=O)oc2nc(OCC(=O)c3ccccc3)[nH]c(=O)c12 [Compound 603]	100 to 1000
CCc1cc(=O)oc2nc(OC[C@H](O)c3ccccc3)[nH]c(=O)c12 [Compound 633]	100 to 1000
CCc1cc(=O)oc2nc(OCc3ccccc3-c3cccc(C(=O)NC)c3)[nH]c(=O)c12 [Compound 551]	100 to 1000
CCc1cc(=O)oc2nc(OCc3cccc(C(F)(F)F)n3)[nH]c(=O)c12 [Compound 568]	100 to 1000

Compound	EC50 [nM]
CCc1cc(=O)oc2nc(OCc3c(-c4ccccc4)noc3C)[nH]c(=O)c12 [Compound 526]	100 to 1000
O=c1[nH]c(=O)c2c(CC3Cc4ccccc4C3)cc(=O)oc2[nH]1 [Compound 202]	100 to 1000
CCCCc1cc(=O)oc2c1c(=O)[nH]c(=O)n2CC1CC1 [Compound 257]	> 1000
CCc1cc(=O)oc2nc(OCc3cccc(-n4cccc4)c3)[nH]c(=O)c12 [Compound 612]	> 1000
CCOC(=O)NOc1nc2oc(=O)cc(CCC(C)C)c2c(=O)[nH]1 [Compound 694]	> 1000
CCc1cc(=O)oc2nc(OCc3cc(C)cc(C)c3)[nH]c(=O)c12 [Compound 505]	100 to 1000
Cc1cc(=O)oc2[nH]c(=O)n(C3CCC3)c(=O)c12 [Compound 252]	0.001 to 100
CCc1cc(=O)oc2nc(OCc3ocnc3C)[nH]c(=O)c12 [Compound 513]	100 to 1000
CC1(CCCc2cc(=O)oc3[nH]c(=O)n(C4CCC4)c(=O)c23)CC1 [Compound 285]	100 to 1000
CCc1cc(=O)oc2nc(OCc3cc4ccccc4s3)[nH]c(=O)c12 [Compound 538]	100 to 1000
CCc1cc(=O)oc2nc(OCc3ccc(-c4ccccn4)s3)[nH]c(=O)c12 [Compound 648]	100 to 1000
CCC(C)(C)Cc1cc(=O)oc2[nH]c(=O)[nH]c(=O)c12 [Compound 204]	> 1000
CC(C)(C)Cc1cc(=O)oc2[nH]c(=O)[nH]c(=O)c12 [Compound 240]	> 1000
CCc1cc(=O)oc2nc(OCC#CCOC)[nH]c(=O)c12 [Compound 636]	100 to 1000
CCn1c(=O)[nH]c2oc(=O)cc(C)c2c1=O [Compound 289]	> 1000
CCc1cc(=O)oc2nc(OCc3c(C)noc3-c3ccccc3)[nH]c(=O)c12 [Compound 531]	100 to 1000
CCc1cc(=O)oc2nc(OCc3ccccc3-c3cccc(C(=O)N(C)C)c3)[nH]c(=O)c12 [Compound 552]	100 to 1000
CCc1cc(=O)oc2nc(OCCN3CCCC3)[nH]c(=O)c12 [Compound 579]	> 1000
CCc1cc(=O)oc2nc(OCC(N)=O)[nH]c(=O)c12 [Compound 582]	100 to 1000
CCCCc1cc(=O)oc2nc(OCC#CCOC)[nH]c(=O)c12 [Compound 670]	0.001 to 100
CCc1cc(=O)oc2nc(OCc3ccncc3)[nH]c(=O)c12 [Compound 523]	0.001 to 100

Compound	EC50 [nM]
CCc1cc(=O)oc2nc(OCCN3CCCC3=O)[nH]c(=O)c12 [Compound 592]	100 to 1000
CCc1cc(=O)oc2nc(OCC3CCCCN3C)[nH]c(=O)c12 (stereo not drawn) [Compound 594]	> 1000
CCc1cc(=O)oc2nc(OCCOc3ccccc3)[nH]c(=O)c12 [Compound 525]	100 to 1000
CCc1cc(=O)oc2nc(OCc3cccc(-c4cccc5cccnc45)c3)[nH]c(=O)c12 [Compound 560]	> 1000
CCc1cc(=O)oc2nc(OCc3ccccc3-n3ccnc3C)[nH]c(=O)c12 [Compound 583]	100 to 1000
CCOC(=O)Cn1cc(CCCc2cc(=O)oc3[nH]c(=O)[nH]c(=O)c23)nn1 [Compound 250]	> 1000
CCc1cc(=O)oc2nc(OCc3csc(-c4cccs4)n3)[nH]c(=O)c12 [Compound 541]	100 to 1000
COC(C)(C)CCc1cc(=O)oc2[nH]c(=O)[nH]c(=O)c12 [Compound 279]	> 1000
CCc1cc(=O)oc2nc(OCCCSC)[nH]c(=O)c12 [Compound 642]	100 to 1000
CCc1cc(=O)oc2nc(OCCOC3CCCCC3)[nH]c(=O)c12 [Compound 610]	> 1000
CCc1cc(=O)oc2nc(O[C@@H](C)c3ccc4ccccc4c3)[nH]c(=O)c12 [Compound 501]	0.001 to 100
CCc1cc(=O)oc2nc(OCc3ccc(C)cc3C)[nH]c(=O)c12 [Compound 504]	100 to 1000
O=c1cc(CCC2CCCC2)c2c(=O)[nH]c(=O)n(C3CCC3)c2o1 [Compound 242]	> 1000
CCc1cc(=O)oc2nc(OCCOC(C)C)[nH]c(=O)c12 [Compound 595]	100 to 1000
CCc1cc(=O)oc2nc(OCC3CCCCO3)[nH]c(=O)c12 (stereo not drawn) [Compound 593]	> 1000
CCc1cc(=O)oc2nc(OCc3cc(-c4ccccc4Cl)no3)[nH]c(=O)c12 [Compound 640]	100 to 1000
CCc1cc(=O)oc2nc(OCc3cccc(-c4cccc(OC)c4)c3)[nH]c(=O)c12 [Compound 561]	100 to 1000
CCCCc1cc(=O)oc2nc(OCC#CC(C)O)[nH]c(=O)c12 (stereo not drawn) [Compound 680]	0.001 to 100
CCc1cc(=O)oc2nc(OCCCS(C)(=O)=O)[nH]c(=O)c12 [Compound 650]	100 to 1000
CCCC/C=C/c1c(CC)c2c(=O)[nH]c(=O)[nH]c2oc1=O [Compound 214]	> 1000
CCc1cc(=O)oc2nc(OCc3ccncc3NC(=O)C(C)(C)C)[nH]c(=O)c12 [Compound 659]	> 1000

Same assay, conditions: NA EC50 camp (nM), CHO cells expressing recombinant human NAR; forskolin-stimulated cAMP

Compound	EC50 [nM]
CCC#CCOc1nc2oc(=O)cc(CC)c2c(=O)[nH]1 [Compound 512]	0.001 to 100
CCc1cc(=O)oc2nc(OCC#CCO)[nH]c(=O)c12 [Compound 631]	100 to 1000
CCc1cc(=O)oc2nc(OCC#CCCO)[nH]c(=O)c12 [Compound 658]	100 to 1000
CCc1cc(=O)oc2nc(OCc3ccc(-c4cncnc4)cc3F)[nH]c(=O)c12 [Compound 575]	100 to 1000

Same assay, conditions: NA EC50 camp, inhibition of forskolin-stimulated cAMP accumulation, CHO cells expressing recombinant human NAR

Compound	EC50 [nM]
CCCCc1cc(=O)oc2nc(C(F)F)[nH]c(=O)c12 [Compound 750]	1890

Same assay, conditions: inhibition of forskolin-stimulated cAMP accumulation, CHO cells expressing recombinant human NAR; read-out: NA EC50 camp

Compound	EC50 [nM]
CCOC(=O)NOc1nc2oc(=O)cc(CCC3CCC3)c2c(=O)[nH]1 [Compound 691]	47.5
Cc1cc(=O)oc2nc(CF)[nH]c(=O)c12 [Compound 810]	> 10000
CCCCCCc1cc(=O)oc2nc(CF)[nH]c(=O)c12 [Compound 755]	286
O=c1[nH]c(=O)c2c(CCCCC(F)(F)F)cc(=O)oc2[nH]1 [Compound 112]	14.4
O=c1cc(CCC2CCCC2)c2c(=O)n(C3CCC3)c(=O)[nH]c2o1 [Compound 241]	13
C#CCCCc1cc(=O)oc2[nH]c(=O)[nH]c(=O)c12 [Compound 128]	6.3
O=c1[nH]c(=O)c2c(CC3CCCCC3)cc(=O)oc2[nH]1 [Compound 103]	74.3
O=c1[nH]c(=O)c2c(CCCC3CCCC3)cc(=O)oc2[nH]1 [Compound 297]	56.7
CCCCc1cc(=O)oc2[nH]c(=O)n(C(F)F)c(=O)c12 [Compound 816]	291
CCc1cc(=O)oc2nc(OCc3ccccc3F)[nH]c(=O)c12 [Compound 74]	183
CCCCc1cc(=O)oc2[nH]c(=O)nc(OCCOC)c12 [Compound 787]	682
CCCCc1cc(=O)oc2nc(OCC#CC(C)O)[nH]c(=O)c12 (stereo not drawn) [Compound 737]	59.5
CCCCc1cc(=O)oc2[nH]c(=O)[nH]c(=O)c12 [Compound 102]	31
O=c1cc(CCCC2CC2)c2c(=O)n(C(F)F)c(=O)[nH]c2o1 [Compound 814]	161
CCOn1c(=O)[nH]c2oc(=O)cc(CCC3CCC3)c2c1=O [Compound 777]	5600
O=c1cc(CCC2CC2)c2c(=O)[nH]c(CF)nc2o1 [Compound 753]	228
